In patent US20080262009A1, “CRYSTALLINE POLYMORPHS OF N-(3-(DIMETHYLAMINO)PROPYL)-4-(4-(3-FLUORO-4-METHOXYPHENYL) PYRIMIDIN-2-YLAMINO) BENZENESULFONAMIDE AS ACETATE SALTS” (Wyeth, priority 2007, published 2008):

Assays:
Water solubility = test: Water solubility
From the text: HCl, phosphoric acid, tartaric acid, acetic acid, D-glucoronic acid and succinic acid were used to prepare pharmaceutically acceptable salts of compound 3.

[1] = Solubility in organic solvents / group 3 solvents; format: physicochemical

SMILES	solubility (Water solubility; water) [µg/mL]	solubility in THF, DMSO and DMF ([1]; THF, DMSO and DMF)	solubility in group 3 solvents, including water ([1]; group 3 solvents, including water)	Solubility in water (Water solubility; by a thermogravimeteric method)	water solubility (in words) (Water solubility; free base form, general statement)
CC(=O)O.COc1ccc(-c2ccnc(Nc3ccc(S(=O)(=O)NCCCN(C)C)cc3)n2)cc1F [acetate salt of compound 3]	3500				
COc1ccc(-c2ccnc(Nc3ccc(S(=O)(=O)NCCCN(C)C)cc3)n2)cc1F [compound 3]		high	low	not detectable	little to no
